Our source for the IC50 values is patent publication US20230357179A1, “RAF KINASE INHIBITORS AND METHODS OF USE THEREOF” (Deciphera Pharmaceuticals, LLC, priority 2021, published 2023).

pIC50: −log10 of the molar value.

Experiment [1] has as its system Miapaca-2 cells. In words: MiaPaca-2 cell proliferation assay (1), resazurin, 96-well. The conditions noted are these: Homo sapiens, MIA PaCa-2, inhibition of cell proliferation. The class given is cell-based. How it is done:
MiaPaca-2 Cell Proliferation Assay (1)
Miapaca-2 cells (catalog #CRL-1420) are obtained from the American Type Culture Collect (ATTC, Manassas, VA). Briefly, cells were grown in DMEM supplemented with 10% characterized fetal bovine serum (Invitrogen, Carlsbad, CA), 2.5% New Zealand sourced horse serum and 1% Penicillin/Streptomycin/L-Glutamine at 37° C., 5% CO2, and 95% humidity. Cells are expanded until reaching 70-95% confluency at which point they are subcultured or harvested for assay use. A serial dilution of test compound is dispensed into a 96-well black clear bottom plate in triplicate. Three thousand cells are added per well in 200 μL complete growth medium in the 96-well plate. Plates are incubated for 67-72 hours at 37° C., 5% CO2, and 95% humidity. At the end of the incubation, 40 μL of a 440 μM solution of resazurin (Sigma, St. Louis, MO) in PBS is added to each well of the plate and plates are incubated for an additional 5-6 hours at 37° C., 5% CO2, and 95% humidity. Plates are read on a Synergy2 or equivalent reader (Biotek, Winooski VT) using an excitation of 540 nm and an emission of 600 nm. Data is analyzed using Prism software (GraphPad, San Diego, CA) to calculate IC50 values.

Experiment [2] deals with T1, A-Raf kinase (Homo sapiens, UniProt P10398, Y301D/Y302D).
T1 construct: purchased Sigma
Put plainly: Biochemical assay for A-Raf.1 (coupled pyruvate kinase/lactate dehydrogenase). The conditions noted are these: read-out: ARAF.1 IC50. In outline:
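IC50 values came from four-parameter sigmoidal fits of percent inhibition, using rates over the 4 to 5 h window of continuous A340 readings (6 h, 30° C). The coupled PK/LDH system tracked NADH oxidation during 5.55 nM A-Raf activity on 30.1 nM MEK at 1 mM ATP, buffer pH 7.5.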

For experiment [3], the target named is T2, C-Raf kinase (Homo sapiens, UniProt P04049, Y340D/Y341D).
T2 construct: Y340D,; GST (N); purchased Sigma
Put plainly: Biochemical assay for C-Raf.1 (coupled pyruvate kinase/lactate dehydrogenase). The conditions noted are these: read-out: CRAF.1 IC50. The procedure, abridged:
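NADH depletion at 340 nm monitored continuously for 6 h at 30° C, with rates taken over 4–5 h. The coupled pyruvate kinase/lactate dehydrogenase reaction used 1 mM ATP, 30.1 nM MEK substrate and 0.43 nM kinase at pH 7.5. IC50 was fitted sigmoidally from percent inhibition of serially diluted compound.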

T1 sequence (P10398 with tags, fused parts or gaps Y301D/Y302D): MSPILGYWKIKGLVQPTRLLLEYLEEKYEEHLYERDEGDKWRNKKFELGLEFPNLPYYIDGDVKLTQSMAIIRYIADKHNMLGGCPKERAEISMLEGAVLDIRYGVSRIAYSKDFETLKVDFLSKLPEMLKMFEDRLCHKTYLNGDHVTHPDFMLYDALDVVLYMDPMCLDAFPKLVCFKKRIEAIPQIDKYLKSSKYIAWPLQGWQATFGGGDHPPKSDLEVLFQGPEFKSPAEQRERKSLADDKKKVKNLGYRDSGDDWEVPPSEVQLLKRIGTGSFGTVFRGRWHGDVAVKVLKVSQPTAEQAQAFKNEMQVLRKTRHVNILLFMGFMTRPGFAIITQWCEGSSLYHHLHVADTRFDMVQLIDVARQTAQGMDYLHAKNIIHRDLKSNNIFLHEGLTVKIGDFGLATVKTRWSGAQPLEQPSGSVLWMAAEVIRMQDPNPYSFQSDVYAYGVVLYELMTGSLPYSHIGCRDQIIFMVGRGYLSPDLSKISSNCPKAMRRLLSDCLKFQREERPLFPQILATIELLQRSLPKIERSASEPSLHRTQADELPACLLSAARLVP
T2 sequence (P04049 307-648 Y340D/Y341D): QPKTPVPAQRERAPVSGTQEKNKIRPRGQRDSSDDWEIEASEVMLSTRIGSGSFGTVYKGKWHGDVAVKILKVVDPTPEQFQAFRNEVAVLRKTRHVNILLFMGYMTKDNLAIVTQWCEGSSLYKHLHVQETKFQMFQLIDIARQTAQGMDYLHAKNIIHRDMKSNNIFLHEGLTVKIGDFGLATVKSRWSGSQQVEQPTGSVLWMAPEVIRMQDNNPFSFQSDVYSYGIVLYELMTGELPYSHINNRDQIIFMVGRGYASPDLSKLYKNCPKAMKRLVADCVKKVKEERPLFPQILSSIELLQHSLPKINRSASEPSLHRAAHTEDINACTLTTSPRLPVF

Take `Cc1ccc(NC(=O)Nc2cccc(C(F)(F)F)c2)cc1-c1cc(OCCO)nc(N2CCOCC2)c1` [Example 3, 1-(3-(2-(2-hydroxyethoxy)-6-morpholinopyridin-4-yl)-4-methylphenyl)-3-(3-(trifluoromethyl)phenyl)urea]: the pIC50 (in general, the IC50 on a negative log10 scale, so that one unit is a factor of ten) in experiment [1] is 5.00 to 6.00; in experiment [2] it was 6.30 to 7.00; in experiment [3], no less than 7.00.

As for `Cc1ccc(NC(=O)NCCC(C)(C)C)cc1-c1cc(N2CCOCC2)nc(N2CCOCC2)c1` [Example 4], the pIC50 in experiment [1] is 5.00 to 6.00; in experiment [2], less than 6.00; in experiment [3], no less than 7.00.

As for `COC(=O)Nc1cc(-c2cc(-c3cc(NC(=O)NC[C@H]4CCO4)c(F)cc3C)cc(OCCO)n2)ccn1` [Example 96], the pIC50 was less than 6.00 in experiment [2] and 6.30 to 7.00 in experiment [3].

Take `COC1(CCNC(=O)Nc2cc(-c3ccnc(-c4ccnc(NC(=O)C5CC5)c4)n3)c(C)cc2F)CC1` [Example 117]: the figures for the pIC50 in experiment [1], in experiment [2] and in experiment [3] were 5.00 to 6.00, 6.30 to 7.00 and no less than 7.00, respectively.

Regarding `Cc1ncc(NC(=O)NCCC2(C)CC2)cc1-c1ccnc(-c2ccnc(NC(=O)C3CC3)c2)c1` [Example 118], the pIC50 is 5.00 to 6.00 in experiment [1], less than 6.00 in experiment [2] and no less than 7.00 in experiment [3].

On to `COC(C)(C)CCNC(=O)Nc1cnc(C)c(-c2cc(-c3ccnc(NC(=O)C4CC4)c3)cnn2)c1` [Example 121], for which the values for the pIC50 in experiment [1], in experiment [2] and in experiment [3] were 5.00 to 6.00, less than 6.00 and no less than 7.00, respectively.

As to `CCC(C)CCNC(=O)Nc1cnc(C)c(-c2ccnc(-c3ccnc(NC(=O)C4CC4)c3)c2)c1` (centres unmarked) [Example 124], the pIC50 was less than 6.00 in experiment [2] and no less than 7.00 in experiment [3].

Regarding `COC(=O)Nc1cc(-c2cc(-c3cc(NC(=O)NCCN4CCC4)c(F)cc3C)cc(OCCO)n2)ccn1` [Example 125], the negative-log IC50 (pIC50) in experiment [2] and in experiment [3] was less than 6.00 in each case.

Consider `Cc1ncc(NC(=O)NC2CC(C)(C)C2)cc1-c1cc(OCCO)nc(-c2ccnc(NC(=O)C3CC3)c2)c1` [Example 126], for which the values for the pIC50 in experiment [2] and in experiment [3] were 6.00 to 6.30 and no less than 7.00, respectively.

`Cc1cc(F)c(NC(=O)NCCC(C)(C)F)cc1-c1cccc(-c2cc(NC(=O)C3CC3)ncn2)c1` [Example 127]: the negative logarithm of the IC50 (pIC50) is 6.30 to 7.00 in experiment [2] and no less than 7.00 in experiment [3].

For `Cc1cc(F)c(NC(=O)NCCC(C)(C)F)cc1-c1ccnc(-c2ccnc(NC(=O)C3CC3)c2)n1` [Example 128], the pIC50 in experiment [2] was 6.30 to 7.00; in experiment [3], no less than 7.00.

As for `COC(=O)Nc1cc(-c2nccc(-c3cc(NC(=O)NCCC(C)(C)OC)c(F)cc3C)n2)ccn1` [Example 129], the pIC50 in experiment [2] was less than 6.00; in experiment [3], no less than 7.00.

As to `Cc1ncc(NC(=O)NCCC(C)(C)F)cc1-c1nccc(-c2ccnc(NC(=O)C3CC3)c2)n1` [Example 130], the negative logarithm of the IC50 (pIC50) in experiment [2] is less than 6.00; in experiment [3], no less than 7.00.

Regarding `Cc1cc(F)c(NC(=O)NCCC2(C)CC2)cc1-c1ccnc(-c2ccnc(NC(=O)C3CC3)c2)c1` [Example 134], the pIC50 was 6.00 to 6.30 in experiment [2] and no less than 7.00 in experiment [3].

In the case of `COC(=O)Nc1cc(-c2nccc(-c3cc(NC(=O)NCCC4(C)CC4)cnc3C)n2)ccn1` [Example 135], the pIC50 is less than 6.00 in experiment [2] and no less than 7.00 in experiment [3].

In the case of `Cc1ncc(NC(=O)NCCC(C)(C)F)cc1-c1ccnc(-c2ccnc(NC(=O)C3CC3)c2)n1` [Example 136], the pIC50 was less than 6.00 in experiment [2] and no less than 7.00 in experiment [3].

With `COC1(CCNC(=O)Nc2cnc(C)c(-c3ccnc(-c4ccnc(NC(=O)C5CC5)c4)n3)c2)CC1` [Example 137], the pIC50 is less than 6.00 in experiment [2] and no less than 7.00 in experiment [3].

`COC(=O)Nc1cc(-c2cccc(-c3cc(NC(=O)NCCC4(OC)CC4)cnc3C)c2)ncn1` [Example 138]: the negative logarithm of the IC50 (pIC50) in experiment [2] is less than 6.00; in experiment [3], no less than 7.00.

Consider `COC[C@@H]1CCN(C(=O)Nc2cc(-c3cc(-c4ccnc(NC(=O)OC)c4)cnn3)c(C)cc2F)C1` [Example 149], for which the pIC50 in experiment [2] was less than 6.00; in experiment [3] it was 6.00 to 6.30.

For `COC(=O)Nc1cc(-c2cc(-c3cc(NC(=O)NCCC4(C)CC4)cnc3C)cc(OCCO)n2)ccn1` [Example 151], the pIC50 in experiment [2] is less than 6.00; in experiment [3] it was no less than 7.00.

As to `COC[C@H]1CCN(C(=O)Nc2cnc(C)c(-c3cc(OCCO)nc(-c4ccnc(NC(=O)OC)c4)c3)c2)C1` [Example 152], the results for the pIC50 in experiment [2] and in experiment [3] were less than 6.00 and 6.30 to 7.00, respectively.

As for `COC(=O)Nc1cc(-c2cnnc(-c3cc(NC(=O)NCCC(C)(C)OC)cnc3C)c2)ccn1` [Example 153], the negative-log IC50 (pIC50) in experiment [2] is less than 6.00; in experiment [3], 6.00 to 6.30.

In the case of `CNC(=O)c1cc(-c2cnnc(-c3cc(NC(=O)NCCC(C)(C)OC)cnc3C)c2)ccn1` [Example 154], the pIC50 in experiment [2] and in experiment [3] was less than 6.00 in each case.

In the case of `COC(=O)Nc1cc(-c2cc(-c3cc(NC(=O)NCCC4COC4)c(F)cc3C)cc(OCCO)n2)ccn1` [Example 155], the results for the negative-log IC50 (pIC50) in experiment [2] and in experiment [3] were less than 6.00 and no less than 7.00, respectively.

In the case of `COC(=O)Nc1cc(-c2cc(-c3cc(NC(=O)N[C@H]4C[C@](C)(F)C4)cnc3C)cc(OCCO)n2)ccn1` [Example 157], the pIC50 in experiment [2] was less than 6.00; in experiment [3], no less than 7.00.

For the molecule `Cc1cc(F)c(NC(=O)NCCC(C)(C)F)cc1-c1ccnc(-c2ccnc(NC(=O)C3CC3)c2)c1` [Example 159], the pIC50 in experiment [2] was 6.00 to 6.30; in experiment [3] it was no less than 7.00.

As to `COC[C@@H]1CCN(C(=O)Nc2cnc(C)c(-c3cc(OCCO)nc(-c4ccnc(NC(=O)OC)c4)c3)c2)C1` [Example 160], the negative-log IC50 (pIC50) in experiment [2] is less than 6.00; in experiment [3], 6.30 to 7.00.

For the molecule `COC(C)(C)CCNC(=O)Nc1cc(-c2ccnc(-c3ccnc(NC(=O)C4CC4)c3)c2)c(F)cc1F` [Example 162], the pIC50 in experiment [2] was less than 6.00; in experiment [3], no less than 7.00.

`COC(=O)Nc1cc(-c2cc(-c3cc(NC(=O)NCCC(C)(C)OC)c(F)cc3F)ccn2)ccn1` [Example 163]: the negative logarithm of the IC50 (pIC50) in experiment [2] is less than 6.00; in experiment [3], 6.30 to 7.00.

Turning to `CNC(=O)c1cc(-c2cc(-c3cc(NC(=O)NCCC4(C)CC4)c(F)cc3C)cc(OCCO)n2)ccn1` [Example 164], the pIC50 is less than 6.00 in experiment [2] and no less than 7.00 in experiment [3].

As for `COC(=O)Nc1cc(-c2cc(-c3cc(NC(=O)N4CCC(C)(C)CC4)cnc3C)cc(OCCO)n2)ccn1` [Example 166], the figures for the pIC50 in experiment [2] and in experiment [3] were less than 6.00 and no less than 7.00, respectively.

For the molecule `Cc1cc(F)c(NC(=O)NC2CC(C)(C)C2)cc1-c1cc(OCCO)nc(-c2ccnc(NC(=O)C3CC3)c2)n1` [Example 167], the values for the pIC50 in experiment [2] and in experiment [3] were 6.00 to 6.30 and no less than 7.00, respectively.

With `Cc1cc(F)c(NC(=O)NCCC2(C)CC2)cc1-c1cnnc(-c2ccnc(NC(=O)C3CC3)c2)c1` [Example 168], the pIC50 in experiment [2] is 6.00 to 6.30; in experiment [3], no less than 7.00.

Take `Cc1ncc(NC(=O)NCCC2(C)CC2)cc1-c1ccnc(-c2ccnc(NC(=O)C3(C#N)CC3)c2)c1` [Example 169]: the pIC50 in experiment [2] was less than 6.00; in experiment [3], no less than 7.00.

On to `COC(=O)Nc1cc(-c2ccnc(-c3cc(NC(=O)NCCC(C)(C)OC)c(F)cc3C)n2)ccn1` [Example 171], for which the pIC50 in experiment [2] is less than 6.00; in experiment [3], no less than 7.00.

As to `Cc1ncc(NC(=O)NCCN2CCC2)cc1-c1cc(OCCO)nc(-c2ccnc(NC(=O)C3CC3)c2)c1` [Example 172], the pIC50 in experiment [2] and in experiment [3] was less than 6.00 throughout.
